Data as given in patent US20220194945A1, “Imidazolopyridine Compounds For IRE1 Inhibition” (Optikira, LLC, priority 2019, published 2022).

Legend:
[1] = target: T1, IRE1α (Homo sapiens, UniProt O75460); test: Biochemical assay: inhibition of RNase activity of IRE1α; details: IRE1α kinase (E31-11G, Signal Chem) 0.325 nM, substrate 100 nM, 30 min pre-incubation, read-out: In vitro assay IC50
T1 construct: purchased Signal Chem E31-11G
Procedure: Biochemical Assay: Inhibition of RNase activity of IRE1α
The RNase reactions were performed in 384 well black ProxiPlate-384 Plus plates (PERKIN Elmer) using 50 mM Tris assay buffer with 0.5 mM MgCl2, 10 mM KCl, 0.03% Tween, 2 mM DTT and 1% DMSO. Test compounds were prepared on the day of assay and dispensed using D300 digital dispenser as a 10-point ½ log dilution series in duplicate, normalized to a final DMSO concentration of […]. Test compounds were pre-incubated for 30 min at room temperature with IRE1α kinase (E31-11G from Signal Chem) in 2.5 μL of assay buffer. Then 2.5 μl of assay buffer containing substrate (5′ Alexa Fluor 647-rCrArU rGrUrC rCrGrC rArGrC rGrCrArUrG-Iowa Black RQ quencher 3′) added, giving a final concentration of enzyme of 0.325 nM and of substrate of 100 nM. After 20 minutes incubation at room temperature the reactions were stopped by added 5 μL of 5M urea, incubated at room temperature for 10 minutes and fluorescence measured on a plate reader (EnVision, PerkinElmer) IC50 values calculated by fitting a sigmoidal curve to percent inhibition of control versus compound concentration.
(§1) In vitro assay data are for the inhibition of RNase activity of IRE1α. Cellular assay (IC50 data) are for the XBP1 splicing assay.

[2] = tested on: XBP1 splicing; test: Cellular XBP1 splicing assay; assay type: cell-based; details: ARPE-19 cells stably expressing XBP1-nano-luciferase, thapsigargin 150 nM, 4 hour incubation
Procedure: Cellular XBP1 Splicing Assay
ARPE-19 cells stably expressing XBP1 (a.a. 1-376) with nano-luciferase gene sequence linked so it is in frame when XBP1 is spliced, were cultured in F12 media, 10% FBS, 0.044% sodium bicarbonate, 150 μg/ml hygromycin B and seeded for assays at 5,000 cells in 384 well plates in culture media without hygromycin B and incubated at 37° C./5% CO2. After overnight incubation test compounds were added to the cell plate in a 10-point ½ log dilution series in duplicate (final DMSO concentration 0.117%). After further incubation of 30 minutes thapsigargin was added (final concentration 150 nM) and then another 4 hour incubation. A NanoLuc luciferase assay (Promega) was used according to the manufacturer's instructions to detect the luciferase and luminescence measured on a luminometer (EnVision, PerkinElmer). IC50 values calculated by fitting a sigmoidal curve to percent inhibition of control of compound concentration.
as §1

T1 sequence (O75460 468-977 limits assumed): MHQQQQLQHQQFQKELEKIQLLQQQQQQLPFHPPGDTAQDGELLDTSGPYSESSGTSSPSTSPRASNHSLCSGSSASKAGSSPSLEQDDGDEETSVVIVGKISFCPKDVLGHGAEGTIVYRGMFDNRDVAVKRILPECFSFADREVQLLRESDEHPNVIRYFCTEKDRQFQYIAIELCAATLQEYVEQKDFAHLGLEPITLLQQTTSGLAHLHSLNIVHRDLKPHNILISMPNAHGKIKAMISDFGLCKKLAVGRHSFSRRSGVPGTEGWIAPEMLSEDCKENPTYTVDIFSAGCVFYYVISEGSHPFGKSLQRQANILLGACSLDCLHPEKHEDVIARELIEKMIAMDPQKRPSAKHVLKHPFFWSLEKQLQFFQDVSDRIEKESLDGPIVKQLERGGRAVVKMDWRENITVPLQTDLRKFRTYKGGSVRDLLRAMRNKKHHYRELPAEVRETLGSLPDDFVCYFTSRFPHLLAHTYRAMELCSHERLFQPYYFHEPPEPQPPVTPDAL

| IC50 [1] [nM] | IC50 ([2]; Homo sapiens) [nM] | Structure (SMILES) | IC50 [2] [nM] |
| --- | --- | --- | --- |
| 15 | 15 | CC(C)c1nc(-c2ccc(NS(=O)(=O)c3ccccc3Cl)c(F)c2)c2c(N)ncc([C@H]3CC[C@H](N)CC3)n12 [Example 2, N-(4-(8-Amino-5-((1r,4r)-4-aminocyclohexyl)-3-isopropylimidazo[1,5-a]pyrazin-1-yl)-2-fluorophenyl)-2-chlorobenzenesulfonamide] | – |
| 1.5 | 1.7 | CC(C)c1nc(-c2ccc(NS(=O)(=O)Cc3ccccc3Cl)c(F)c2)c2c(N)ncc(C3=CCC(N(C)C)CC3)n12 (centres unmarked) [Example 22] | – |
| 82 | 85 | CC(C)c1nc(-c2ccc(NS(=O)(=O)c3ccccc3Cl)c(F)c2)c2c(N)ncc(C3=CCC(N4CCOCC4)CC3)n12 (centres unmarked) [Example 18, N-(4-(8-Amino-3-isopropyl-5-(4-morpholinocyclohex-1-en-1-yl)imidazo[1,5-a]pyrazin-1-yl)-2-fluorophenyl)-2-chlorobenzenesulfonamide] | – |
| 280 | 300 | CC(C)c1nc(-c2ccc(NS(=O)(=O)c3ccccc3Cl)c(F)c2)c2c(N)ncc([C@H]3CC[C@@H](NC4COC4)CC3)n12 [Example 3, N-(4-(8-Amino-3-isopropyl-5-((1s,4s)-4-(oxetan-3-ylamino)cyclohexyl)imidazo[1,5-a]pyrazin-1-yl)-2-fluorophenyl)-2-chlorobenzenesulfonamide] | – |
| 40 | 7450 | Cc1nc(CS(=O)(=O)Nc2ccc(-c3nc(C(C)C)n4c(C5=CCC(N)CC5)cnc(N)c34)cc2F)cs1 (centres unmarked) [Example 17, N-(4-(8-Amino-5-(4-aminocyclohex-1-en-1-yl)-3-isopropylimidazo[1,5-a]pyrazin-1-yl)-2-fluorophenyl)-1-(2-methylthiazol-4-yl)methanesulfonamide] | – |
| 150 | 98 | CC(C)c1nc(-c2ccc(NS(=O)(=O)c3ccccc3F)c(F)c2)c2c(N)ncc(C3=CCC(NC4COC4)CC3)n12 (centres unmarked) [Example 6, N-(4-(8-Amino-3-isopropyl-5-(4-(oxetan-3-ylamino)cyclohex-1-en-1-yl)imidazo[1,5-a]pyrazin-1-yl)-2-fluorophenyl)-2-fluorobenzenesulfonamide] | – |
| 44 | 41 | COCCNC1CC=C(c2cnc(N)c3c(-c4ccc(NS(=O)(=O)c5ccccc5Cl)c(F)c4)nc(C(C)C)n23)CC1 (centres unmarked) [Example 19, N-(4-(8-amino-3-isopropyl-5-(4-((2-methoxyethyl)amino)cyclohex-1-en-1-yl)imidazo[1,5-a]pyrazin-1-yl)-2-fluorophenyl)-2-chlorobenzenesulfonamide] | – |
| 110 | 170 | CC(C)c1nc(-c2cc(F)c(NS(=O)(=O)c3ccccc3Cl)cc2F)c2c(N)ncc(C3=CCC(NC4COC4)CC3)n12 (centres unmarked) [Example 8, N-(4-(8-Amino-3-isopropyl-5-(4-(oxetan-3-ylamino)cyclohex-1-en-1-yl)imidazo[1,5-a]pyrazin-1-yl)-2,5-difluorophenyl)-2-chlorobenzenesulfonamide] | – |
| > 1000 | 6100 | Cc1nc(NS(=O)(=O)c2ccccc2Cl)ccc1-c1nc(C(C)C)n2c(C3=CCC(NC4COC4)CC3)cnc(N)c12 (centres unmarked) [Example 21, N-(5-(8-amino-3-isopropyl-5-(4-(oxetan-3-ylamino)cyclohex-1-en-1-yl)imidazo[1,5-a]pyrazin-1-yl)-6-methylpyridin-2-yl)-2-chlorobenzenesulfonamide] | – |
| > 1000 | > 10000 | COc1nc(NS(=O)(=O)c2ccccc2Cl)ccc1-c1nc(C(C)C)n2c(C3=CCC(NC4COC4)CC3)cnc(N)c12 (centres unmarked) [Example 20, N-(5-(8-amino-3-isopropyl-5-(4-(oxetan-3-ylamino)cyclohex-1-en-1-yl)imidazo[1,5-a]pyrazin-1-yl)-6-methoxypyridin-2-yl)-2-chlorobenzenesulfonamide] | – |
| 290 | 510 | CC(C)c1nc(-c2ccc(NS(=O)(=O)c3ccccc3Cl)c(F)c2)c2c(N)ncc([C@H]3CC[C@@H](N)CC3)n12 [Example 1, N-(4-(8-Amino-5-((1s,4s)-4-aminocyclohexyl)-3-isopropylimidazo[1,5-a]pyrazin-1-yl)-2-fluorophenyl)-2-chlorobenzenesulfonamide] | – |
| 150 | 540 | CC(C)c1nc(-c2cc(F)c(NS(=O)(=O)c3ccccc3F)cc2F)c2c(N)ncc(C3=CCC(NC4COC4)CC3)n12 (centres unmarked) [Example 7, N-(4-(8-Amino-3-isopropyl-5-(4-(oxetan-3-ylamino)cyclohex-1-en-1-yl)imidazo[1,5-a]pyrazin-1-yl)-2,5-difluorophenyl)-2-fluorobenzenesulfonamide] | – |
| 420 | 3100 | COc1ccc(S(=O)(=O)Nc2ccc(-c3nc(C(C)C)n4c(C5=CCC(NC6COC6)CC5)cnc(N)c34)cc2F)cn1 (centres unmarked) [Example 11, N-(4-(8-Amino-3-isopropyl-5-(4-(oxetan-3-ylamino)cyclohex-1-en-1-yl)imidazo[1,5-a]pyrazin-1-yl)-2-fluorophenyl)-6-methoxypyridine-3-sulfonamide] | – |
| 480 | 6500 | Cc1nc(S(=O)(=O)Nc2ccc(-c3nc(C(C)C)n4c(C5=CCC(NC6COC6)CC5)cnc(N)c34)cc2F)cs1 (centres unmarked) [Example 15, N-(4-(8-Amino-3-isopropyl-5-(4-(oxetan-3-ylamino)cyclohex-1-en-1-yl)imidazo[1,5-a]pyrazin-1-yl)-2-fluorophenyl)-2-methylthiazole-4-sulfonamide] | – |
| 11 | 110 | CC(C)c1nc(-c2ccc(NS(=O)(=O)c3ccccc3Cl)c(F)c2)c2c(N)ncc(C3=CCC(NCCS(C)(=O)=O)CC3)n12 (centres unmarked) [Example 16, N-(4-(8-Amino-3-isopropyl-5-(4-((2-(methylsulfonyl)ethyl)amino)cyclohex-1-en-1-yl)imidazo[1,5-a]pyrazin-1-yl)-2-fluorophenyl)-2-chlorobenzenesulfonamide] | – |
| 69 | 760 | CC(C)c1nc(-c2ccc(NS(=O)(=O)c3ccccc3F)c(F)c2Cl)c2c(N)ncc(C3=CCC(NC4COC4)CC3)n12 (centres unmarked) [Example 9, N-(4-(8-Amino-3-isopropyl-5-(4-(oxetan-3-ylamino)cyclohex-1-en-1-yl)imidazo[1,5-a]pyrazin-1-yl)-3-chloro-2-fluorophenyl)-2-fluorobenzenesulfonamide] | – |
| 360 | 6400 | Cc1cncc(S(=O)(=O)Nc2ccc(-c3nc(C(C)C)n4c(C5=CCC(NC6COC6)CC5)cnc(N)c34)cc2F)c1 (centres unmarked) [Example 13, N-(4-(8-Amino-3-isopropyl-5-(4-(oxetan-3-ylamino)cyclohex-1-en-1-yl)imidazo[1,5-a]pyrazin-1-yl)-2-fluorophenyl)-5-methylpyridine-3-sulfonamide] | – |
| 140 | 6600 | CC(C)c1nc(-c2ccc(NS(=O)(=O)c3ccc(C(F)(F)F)nc3)c(F)c2)c2c(N)ncc(C3=CCC(NC4COC4)CC3)n12 (centres unmarked) [Example 12, N-(4-(8-Amino-3-isopropyl-5-(4-(oxetan-3-ylamino)cyclohex-1-en-1-yl)imidazo[1,5-a]pyrazin-1-yl)-2-fluorophenyl)-6-(trifluoromethyl)pyridine-3-sulfonamide] | – |
| 61 | 7700 | CC(C)c1nc(-c2cnc(NS(=O)(=O)c3ccccc3Cl)c(F)c2)c2c(N)ncc(C3=CCC(NC4COC4)CC3)n12 (centres unmarked) [Example 10, N-(5-(8-Amino-3-isopropyl-5-(4-(oxetan-3-ylamino)cyclohex-1-en-1-yl)imidazo[1,5-a]pyrazin-1-yl)-3-fluoropyridin-2-yl)-2-chlorobenzenesulfonamide] | – |
| – | 5400 | CC(C)c1nc(-c2ccc(NS(=O)(=O)c3ccccn3)c(F)c2)c2c(N)ncc(C3=CCC(NC4COC4)CC3)n12 (centres unmarked) [Example 14, N-(4-(8-Amino-3-isopropyl-5-(4-(oxetan-3-ylamino)cyclohex-1-en-1-yl)imidazo[1,5-a]pyrazin-1-yl)-2-fluorophenyl)pyridine-2-sulfonamide] | – |

| Structure (SMILES) | IC50 [1] [nM] | IC50 ([2]; Homo sapiens) [nM] | IC50 [2] [nM] |
| --- | --- | --- | --- |
| CC(C)c1nc(-c2ccc(NS(=O)(=O)c3ccccc3Cl)c(F)c2)c2c(N)ncc([C@H]3CC[C@H](NC4COC4)CC3)n12 [Example 4, N-(4-(8-Amino-3-isopropyl-5-((1r,4r)-4-(oxetan-3-ylamino)cyclohexyl)imidazo[1,5-a]pyrazin-1-yl)-2-fluorophenyl)-2-chlorobenzene sulfonamide] | 6.4 | – | 5 |
